Measurements as given in patent US8425885B2, “Substituted 3-(phenoxymethyl) benzyl amines and personal care compositions” (Conopco, Inc., priority 2009, dated 2013).

Test system: Melanoderm tissue equivalent model MEL-300 (MatTek) containing melanocytes obtained from dark skin individuals
Test: Melanoderm tissue equivalent melanin content (inhibition of melanogenesis)
Type: cell-based
Conditions: Melanocyte, 336 h, total melanin content vs DMSO vehicle, 5 μM in maintenance medium, 14 days
Experimental: Melanoderm tissue equivalent model MEL-300 (MatTek: Ashland, Mass.) containing melanocytes obtained from dark skin individuals were cultured as per supplier instructions. Components were added to the maintenance medium phase (no topical treatments) at a final concentration of 5 μM for 14 days at which time the experiment was terminated and the tissues assessed for melanin content. Medium and treatments were changed three times per week. DMSO was utilized as the vehicle control and all treatments were performed at least in duplicate.
For quantification of total melanin, each Melanoderm was placed into an individual Eppendorf tube (2 mL) into which 250 μL of Solvable™ tissue solubilizer (Packard Bioscience Co., Cat#6NE9100) was added. Each tube was vortexed and incubated at 60° C. for 18 hours. Each sample was then centrifuged (5-minutes at 13,000 RPMs) to remove any particulates. 100 or 200 μL of supernatant were transferred to a 96 well microtiter plate and the absorbance read at 490 nm. Total melanin content was calculated from a standard curve using synthetic melanin (Sigma Cat# M8631). Data was analyzed for significance using the t-test in Microsoft Excel to generate p-values (p-values less than 0.01 represent 99% confidence, p values of 0.05 represent 95% confidence both of which are statistically significant).

`CCN(CC)Cc1cccc(COc2ccccc2)c1` [5a, N-(3-(phenoxymethyl)benzyl)-N-ethylethanamine] was tested, and the inhibition at 5 µM was 14.4%.
`CCN(CC)Cc1cccc(COc2ccccc2C)c1` [5b, N-(3-((o-tolyloxy)methyl)benzyl)-N-ethylethanamine] gave an inhibition at 5 µM of 27.1%.
`CCc1ccccc1OCc1cccc(CN(CC)CC)c1` [5c, N-(3-((2-ethylphenoxy)methyl)benzyl)-N-ethylethanamine] showed an inhibition at 5 µM of 30.7%.
With `CCN(CC)Cc1cccc(COc2ccccc2OC)c1` [5d, N-(3-((2-methoxyphenoxy)methyl)benzyl)-N-ethylethanamine] the inhibition at 5 µM was 9.3%.
With `COc1ccccc1OCc1cccc(CNC(C)C)c1` [5e, N-(3-((2-methoxyphenoxy)methyl)benzyl)propan-2-amine] the inhibition at 5 µM was 14.7%.
In the case of `CCN(C)Cc1cccc(COc2ccccc2OC)c1` [5f, N-(3-((2-methoxyphenoxy)methyl)benzyl)-N-methylethanamine], the inhibition at 5 µM is reported as 20.8%.
`CCN(CC)Cc1cccc(COc2ccccc2C(C)C)c1` [5g, N-(3-((2-isopropylphenoxy)methyl)benzyl)-N-ethylethanamine] showed an inhibition at 5 µM of 29.9%.
`CCN(CC)Cc1cccc(COc2cccc3ccccc23)c1` [5h, N-(3-((naphthalen-1-yloxy)methyl)benzyl)-N-ethylethanamine] showed an inhibition at 5 µM of 33.5%.
`CN(C)Cc1cccc(COc2cccc3ccccc23)c1` [5i, N,N-dimethyl(3-((naphthalen-1-yloxy)methyl)phenyl)methanamine] gave an inhibition at 5 µM of 25.3%.
For `CC(C)NCc1cccc(COc2cccc3ccccc23)c1` [5j, N-(3-((naphthalen-1-yloxy)methyl)benzyl)propan-2-amine], the inhibition at 5 µM was 26.5%.
For `CCc1ccc(OCc2cccc(CN(C)C)c2)cc1` [5k], the inhibition at 5 µM was -0.6%.
`CCc1ccccc1OCc1cccc(CN(C)C)c1` [5m, (3-((2-ethylphenoxy)methyl)phenyl)-N,N-dimethylmethanamine] gave an inhibition at 5 µM of 31.6%.
With `CCc1ccccc1OCc1cccc(CNC)c1` [5q, (3-((2-ethylphenoxy)methyl)phenyl)-N-methylmethanamine] the inhibition at 5 µM was 42.3%.
`CCNCc1cccc(COc2ccccc2CC)c1` [5r, N-(3-((2-ethylphenoxy)methyl)benzyl)ethanamine] gave an inhibition at 5 µM of 33.9%.
`NCc1cccc(COc2cccc3ccccc23)c1` [5s, (3-((naphthalen-1-yloxy)methyl)phenyl)methanamine] gave an inhibition at 5 µM of 4%.
`CNCc1cccc(COc2cccc3ccccc23)c1` [5t, N-methyl(3-((naphthalen-1-yloxy)methyl)phenyl)methanamine] gave an inhibition at 5 µM of 27.1%.
In the case of `CCNCc1cccc(COc2cccc3ccccc23)c1` [5u, N-((3-((naphthalen-1-yloxy)methyl)phenyl)methyl)ethanamine], the inhibition at 5 µM is reported as 42.5%.
